Data reported in patent US6545000B1, “[1,2,4]triazolo[1,5-c]pyrimidine derivatives” (Kyowa Hakko Kogyo Co., Ltd., priority 1998, dated 2003).

Key:
[1] = tested on: CGS 21680-induced catalepsy; assay: Activity on CGS 21680-induced catalepsy; assay type: in vivo, mouse; conditions: 10 mg/kg oral; for inhibition in vivo at 10 mg/kg: Mus musculus, 1 h, percentage reduction of total score vs control group, read-out: Remission ratio (%); for Total score: total catalepsy score of 10 mice (maximum 50 points), 1 hour after administration
Protocol: This test was carried out using 10 animals per group of male ddY mice of 5 week age (22 to 25 g in body weight, Japan SLC). […] One hour after the administration of the test compound, only forelimbs or only hindlimbs of each animal were laid on a vertically arranged stand made of acryl, having a size of 4.5 cm in height and 1.0 cm in width, to measure catalepsy symptoms. All of the test compounds were administered orally in a dose of 10 mg/kg.
(§1) The effect was judged by total catalepsy scores of 10 animals in one group (the maximum score is 50 points). When total score was 40 points or less, the activity of the compounds was judged positive. The number of animals showing remission of catalepsy was expressed by the number of cases in which the catalepsy score was 4 points or less in 10 cases. The catalepsy remission ratio was expressed as the percentage reduction of the total score in the test compound-administered group to the total score in the control group.

Rat A2A receptor = biological target: T1, Rat A2A receptor (Rattus norvegicus, UniProt P30543); assay: Adenosine A2A receptor binding test (3H-CGS 21680 binding); conditions: rat corpus striatum
T1 construct: from tissue; host or cells: rat corpus striatum membrane preparation
Protocol: The final precipitate was suspended in 50 mmol/L Tris-HCl buffer (containing 10 mmol/L magnesium chloride and 0.02 unit/mg tissue of adenosine deaminase (manufactured by Sigma Co.)) by adding the buffer to the final precipitate so as to give a tissue concentration of 5 mg (wet weight)/mL.
Inhibition ratio (%)={1−(amount of the binding in the presence of the test compound−amount of the non-specific binding)/(amount of the total binding−amount of the non-specific binding)}×100

[2] = tested on: MPTP-treated common marmoset; assay: Parkinson's disease model (common marmoset treated with MPTP); assay type: in vivo; conditions: motor disability score (0-17 points), 4 animals
Protocol: This test was carried out using 4 animals per group of female and male common marmosets of 2 to 3 year age (300 to 375 g in body weight, CLEA Japan). MPTP (manufactured by RBI) was dissolved in physiological saline for injection (manufactured by Otsuka Pharmaceutical Co., Ltd.) and administered to common marmoset once a day for 5 days by subcutaneous injection in a dose of 2.0 mg/kg. Six weeks or more after the administration, animals showing chronic symptoms of Parkinson's disease were used in the test. Each test compound was used by suspending it in 0.3% Tween 80 and 10% sucrose solution. One hour before the administration of the test compound, the animals to be tested were put into an observation cage (equipped with a spontaneous locomotor count measuring apparatus) to adapt them to the environment. Pre-motor disability before administration of the test compound was scored, and was compared with the motor disability score after administration of the test compound. Symptoms of Parkinson's disease were observed from a one way see through window at 30 minutes' interval for 8 hours to score their motor disability. The spontaneous locomotor count was measured at 30 minutes' interval for 12 hours by a computer-controlled automatic measuring apparatus. […]

[3] = tested on: reserpine-induced catalepsy; assay: Activity on reserpine-induced catalepsy; assay type: in vivo, mouse; conditions: oral; for Remission ratio (%): percentage reduction of total score vs control group; for Total score: total catalepsy score of 10 mice (maximum 50 points), reserpine 5 mg/kg s.c., 1 hour after administration
Protocol: This test was carried out using 10 animals per group of male ddY mice of 5 week age (22 to 24 g in body weight, Japan SLC). […] Reserpine (5 mg/kg: apoplon, Daiichi Pharmaceutical Co., Ltd.; diluted with distilled water) was subcutaneously administered, and catalepsy-inducing activity was observed from 18 hours after the administration. […] Each test compound was suspended in distilled water for injection containing 0.5% MC (manufactured by Otsuka Pharmaceutical Co., Ltd.) The suspension containing each of the test compounds or a solution containing no test compound (distilled water for injection containing 0.5% MC (manufactured by Otsuka Pharmaceutical Co., Ltd.); control) was orally administered (0.1 mL per 10 g mouse body weight) and, one hour after the administration of test compound, only forelimbs or only hindlimbs of each animal were laid on a stand having a size of 4.5 cm in height and 1.0 cm in width, to measure catalepsy symptoms.
as §1, with “maximum” for “maximum score”, “When the” for “When”, “test compound” for “compounds”

[4] = tested on: haloperidol-induced catalepsy; assay: Activity on haloperidol-induced catalepsy; assay type: in vivo, mouse; conditions: 10 mg/kg oral; for Number of animals showing remission: catalepsy score 4 points or less, out of 10 mice; for Remission ratio (%): percentage reduction of total score vs control group; for Total score: total catalepsy score of 10 mice (maximum 50 points), haloperidol 1.0 mg/kg i.p.
Protocol: Parkinson's disease is a disease based on the degeneration and cell death of the nigrostriatal dopaminergic neuron. When haloperidol (dopamine D2 antagonist) is administered, catalepsy is induced by the block of postsynaptic D2 receptor. This haloperidol-induced catalepsy is known as a classic model in which symptoms of Parkinson's disease are produced by drug administration (European Journal of Pharmacology, 182: 327 (1990) and U.S. Pat. No. 3,991,207).
This test was carried out using 10 animals per group of male ddY mice of 5 week age (22 to 24 g in body weight, Japan SLC). Haloperidol (manufactured by Janssen) was suspended in 0.5% MC and administered intraperitoneally into mice at a dose of 1.0 mg/kg. Each test compound was suspended in distilled water for injection containing 0.5% MC (manufactured by Otsuka Pharmaceutical Co., Ltd.) (10 mg/kg). Also, as a control drug, 100 mg/kg of L-DOPA and 25 mg/kg of benserazide were used as a solution by dissolving them into distilled water for injection containing 0.5% MC (manufactured by Otsuka Pharmaceutical Co., Ltd.) One hour after the intraperitoneal injection of haloperidol, the suspension containing each of the test compounds or the solution containing the control drug was orally administered (0.1 mL per 10 g mouse body weight) and, one hour after the administration of the test compound or the control drug, only forelimbs or only hindlimbs of each animal were laid on a stand having a size of 4.5 cm in height and 1.0 cm in width, to measure catalepsy symptoms. The catalepsy score was evaluated by the judging criteria shown in the above-described Table 3.
as §1, with “points). When the total score” for “points). When total score”, “of the test compounds was” for “of the compounds was”

ddY male mice = assay: Forced swimming method (measurement of immobility time); assay type: in vivo, mouse; conditions: oral, one hour before the test; 4 minutes (240 seconds) measurement; 10 mice
Protocol: Ten animals per group of ddY male mice (21 to 26 g in body weight, Japan SLC) were used as the test animal. During the preliminary feeding period, they were allowed to have feed and water freely in an animal room of a room temperature of 23±1° C. and a humidity of 55±5%. Animals showing abnormal reactions in terms of spontaneous activity, myotonia, eyesight or the like were excluded beforehand. The test compound was suspended in a 0.3% Tween 80 solution and orally administered one hour before the test. In the negative control group, 10 mL/kg of a 0.3% Tween 80 solution alone was orally administered. Measurement of immobility time was carried out in accordance with the method of Porsolt (Arch. int Pharmacodyn., 229: 327-336 (1977)). That is, a cylindrical transparent acrylic water tank (10 cm in diameter and 25 cm in height) was filled with 9 cm in depth of water having a temperature of 23±1° C., and mice were forced to swim for 6 minutes. When mice are put into water, they immediately start to swim trying to escape from the tank, but the motion gradually decreases 1 to 2 minutes thereafter. […] In order to reduce effects of daily rhythm, the test was carried out by using 5 of the 10 animals per group in the morning, and the remaining 5 animals in the afternoon. […]

T1 sequence (P30543 whole entry): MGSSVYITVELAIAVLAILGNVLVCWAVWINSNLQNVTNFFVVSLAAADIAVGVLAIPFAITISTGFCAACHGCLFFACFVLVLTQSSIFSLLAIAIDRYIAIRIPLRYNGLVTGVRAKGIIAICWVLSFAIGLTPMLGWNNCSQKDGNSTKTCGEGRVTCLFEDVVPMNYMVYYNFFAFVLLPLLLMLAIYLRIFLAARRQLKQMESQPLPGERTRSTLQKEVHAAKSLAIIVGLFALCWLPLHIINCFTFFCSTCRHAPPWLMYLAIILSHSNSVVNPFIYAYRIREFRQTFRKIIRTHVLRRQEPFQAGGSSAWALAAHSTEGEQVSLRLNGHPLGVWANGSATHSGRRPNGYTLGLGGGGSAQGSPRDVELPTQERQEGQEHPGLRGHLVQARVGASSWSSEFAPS

Structure (SMILES) | inhibition in vivo at 10 mg/kg [1] [%] | Total score [1] | Rat A2A receptor inhibition ratio (%) (Rat A2A receptor; 10^−6 mol/L test compound) | Rat A2A receptor inhibition ratio (%) (Rat A2A receptor; 10^−7 mol/L test compound) | Average score at maximum improvement after administration ([2]; after administration) | Average score before administration ([2]; before administration of the test compound) | Remission ratio (%) [3] [%] | Total score [3] | Number of animals showing remission [4] | Remission ratio (%) [4] [%] | Total score [4] | Immobility time (second) (ddY male mice)
CC(C)(O)CN1CCN(c2cc3nc(-c4ccco4)nn3c(N)n2)CC1 [Compound 1, 5-Amino-2-(2-furyl)-7-(4-(2-hydroxy-2-methylpropyl)piperazinyl)[1,2,4]triazolo[1,5-c]pyrimidine] | 100 | 0 | 81 | 42 | 4.75 ± 0.48 (p < 0.0256) | 12.75 ± 0.25 | 72 | 14 | 10 | 100 | 0 | –
Cc1cc(CN2CCN(c3cc4nc(-c5ccco5)nn4c(N)n3)CC2)no1 [Compound 21, 5-Amino-2-(2-furyl)-7-(4-(5-methylisoxazol-3-ylmethyl)piperazinyl)[1,2,4]triazolo[1,5-c]pyrimidine] | 100 | 0 | 90 | 65 | – | – | 66 | 17 | 10 | 100 | 0 | 7.6 ± 3.2 (p < 0.01) second
